Reference: paper PMC9742383, “From tryptamine to the discovery of efficient multi-target directed ligands against cholinesterase-associated neurodegenerative disorders” (Frontiers in Pharmacology, 2022)
Where two headings read alike, the source gives them in different places.

How the values were obtained:
AChE = target: T1, AChE (Electrophorus electricus, UniProt O42275); assay: Ellman colorimetric assay; format: biochemical
T1 construct: native enzyme, Type V-S lyophilized powder, Sigma-Aldrich

BuChE = BuChE (Equus caballus, UniProt P81908); assay: Ellman colorimetric assay; format: biochemical; parameters: gene BCHE; native enzyme from equine serum, purchased from Sigma-Aldrich
in vitro = assay: in vitro; parameters: MTT cytotoxicity, absorbance at 570 nm, HT-22 mouse hippocampal neuronal cells; settings: mouse, read-out: IC50 ± SD / HT-22 ^a
Procedure: The cell lines present in this study were purchased from the China Center for Type Collection (CCTCC, China). For cytotoxicity assay, HT-22, BV2, SH-SY5Y, HepG2, and LO2 cells were incubated in 96-well plates at the density of 5 × 10³ per well. After incubation for 12 h at 37°C, the tested compounds with the required concentrations were added to the corresponding wells and continuously incubated for 24 h at 37°C. Then, the prepared MTT (3-[4,5-dimethyl-2-thiazolyl]-2,5-diphenyl-2H-tetrazolium bromide) solution was added to each well and co-incubated for another 4 h at 37°C. Then, the supernatant was removed, and 100 μl DMSO was added to each well. The OD value of each well was detected at 570 nm using a microplate reader (Bio-Rad Laboratories, CA, United States). The IC50 values were calculated using IBM SPSS Statistics 25.0 software. All experiments were performed in triplicate, and the results were shown as the mean ± SD. In order to explore the applicability of the synthesized CTDs in neurological diseases, the neuronal cytotoxicity of the synthesized compounds was evaluated on mouse hippocampal neuronal cell line HT-22. […] In view of these CTDs endowed strong inhibition efficacy on BuChE, we preliminarily evaluated their safety range by comparing their IC50 values on cytotoxicity and BuChE inhibitory activity. […] Therefore, the series of compounds with dibenzyl groups, especially compounds bearing ring carbon alkyl chains (2f-2h) and tertiary amine residues (2j-2u) with little cytotoxicity on HT-22, can be considered as potential lead building blocks for further structure optimization to develop novel effective agents against neurological diseases.

[1] = read-out: IC50 ± SD ^a / AChE ^a
[2] = read-out: IC50 ± SD ^a / BuChE ^a
[3] = ht-22 hippocampal neuronal cells

Chain of BuChE (P81908 whole entry): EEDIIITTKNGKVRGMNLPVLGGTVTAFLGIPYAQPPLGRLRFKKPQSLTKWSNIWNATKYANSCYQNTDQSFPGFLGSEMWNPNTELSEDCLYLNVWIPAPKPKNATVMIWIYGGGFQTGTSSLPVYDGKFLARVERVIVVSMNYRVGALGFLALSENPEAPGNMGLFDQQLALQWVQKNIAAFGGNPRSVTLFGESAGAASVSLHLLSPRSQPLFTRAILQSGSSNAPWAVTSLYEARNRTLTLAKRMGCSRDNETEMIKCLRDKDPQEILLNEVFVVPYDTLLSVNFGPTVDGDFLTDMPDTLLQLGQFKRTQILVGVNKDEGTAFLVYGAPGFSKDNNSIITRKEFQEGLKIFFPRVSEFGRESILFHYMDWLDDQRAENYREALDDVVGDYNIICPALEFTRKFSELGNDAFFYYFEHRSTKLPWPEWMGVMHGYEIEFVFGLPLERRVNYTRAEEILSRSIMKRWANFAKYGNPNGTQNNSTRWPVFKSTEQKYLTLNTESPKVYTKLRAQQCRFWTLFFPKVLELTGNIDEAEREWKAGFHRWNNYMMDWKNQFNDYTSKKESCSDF
T1 sequence (O42275 24-633): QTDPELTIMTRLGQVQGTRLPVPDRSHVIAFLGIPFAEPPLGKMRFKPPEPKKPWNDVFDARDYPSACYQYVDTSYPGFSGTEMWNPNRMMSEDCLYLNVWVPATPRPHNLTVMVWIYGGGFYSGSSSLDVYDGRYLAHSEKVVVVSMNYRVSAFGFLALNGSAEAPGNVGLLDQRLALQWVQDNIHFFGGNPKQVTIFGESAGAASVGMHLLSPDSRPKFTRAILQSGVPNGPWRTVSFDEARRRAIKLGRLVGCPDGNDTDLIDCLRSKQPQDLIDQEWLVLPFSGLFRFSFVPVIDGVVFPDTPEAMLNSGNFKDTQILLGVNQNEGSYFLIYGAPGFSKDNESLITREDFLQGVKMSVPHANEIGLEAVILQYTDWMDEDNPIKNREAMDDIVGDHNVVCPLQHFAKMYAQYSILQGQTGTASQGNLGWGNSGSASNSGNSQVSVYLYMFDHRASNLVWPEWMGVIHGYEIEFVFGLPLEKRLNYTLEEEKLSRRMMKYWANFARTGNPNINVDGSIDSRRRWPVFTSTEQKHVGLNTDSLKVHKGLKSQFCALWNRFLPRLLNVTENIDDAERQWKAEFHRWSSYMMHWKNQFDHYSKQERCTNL

Row | SMILES | IC50 (AChE; [1]) [µM] | IC50 (BuChE; [2]) [µM] | CC50 at 24 h (in vitro; [3]) [µM] | IC50 (AChE; read-out: IC50 ± SD / AChE ^a) [µM] | IC50 (BuChE; read-out: IC50 ± SD / BuChE ^a) [µM] | CC50 at 24 h (in vitro; ht-22) [µM]
1 | CCCCCCNC(=O)Oc1ccc2[nH]cc(CCNCc3ccccc3)c2c1 [3d, 3-(2-(benzylamino)ethyl)-1H-indol-5-yl hexylcarbamate] | 2.44 | 0.019 ± 0.00029 | 16.3 ± 1.19 |  |  | 
2 | CCCCCCNC(=O)Oc1ccc2[nH]cc(CCN(Cc3ccccc3)Cc3ccccc3)c2c1 [2d, 3-(2-(dibenzylamino)ethyl)-1H-indol-5-yl hexylcarbamate] |  |  |  | > 100 | 0.00147 ± 0.00015 | 37.6 ± 1.92
3 | O=C(Nc1ccccc1)Oc1ccc2[nH]cc(CCNCc3ccccc3)c2c1 [3i, 3-(2-(benzylamino)ethyl)-1H-indol-5-yl phenylcarbamate] | 23.3 | 0.11 ± 0.00522 | 18.4 ± 0.43 |  |  | 
4 | O=C(Oc1ccc2[nH]cc(CCNCc3ccccc3)c2c1)N1CCCC1 [3r] | 1.82 | 0.0405 ± 0.00179 | 31.7 ± 1.64 |  |  | 
5 | CCCN(CCC)C(=O)Oc1ccc2[nH]cc(CCN(Cc3ccccc3)Cc3ccccc3)c2c1 [2l, 3-(2-(dibenzylamino)ethyl)-1H-indol-5-yl dipropylcarbamate] |  |  |  | > 100 | 0.0159 ± 0.00055 | 38.6 ± 0.9
6 | O=C(NC1CCCC1)Oc1ccc2[nH]cc(CCNCc3ccccc3)c2c1 [3g, 3-(2-(benzylamino)ethyl)-1H-indol-5-yl cyclopentylcarbamate] | 27.2 | 0.0136 ± 0.0007 | 18.2 ± 0.95 |  |  | 
7 | CCN(CC)C(=O)Oc1ccc2[nH]cc(CCNCc3ccccc3)c2c1 [3k, 3-(2-(benzylamino)ethyl)-1H-indol-5-yl diethylcarbamate] | > 100 | 0.0725 ± 0.00655 | 16 ± 0.39 |  |  | 
8 | CN(C)C(=O)Oc1ccc2[nH]cc(CCNCc3ccccc3)c2c1 [3j, 3-(2-(benzylamino)ethyl)-1H-indol-5-yl dimethylcarbamate] | 1.91 | 0.132 ± 0.00359 | 21.7 ± 0.72 |  |  | 
9 | CN(C(=O)Oc1ccc2[nH]cc(CCNCc3ccccc3)c2c1)c1ccccc1 [3p, 3-(2-(benzylamino)ethyl)-1H-indol-5-yl methyl(phenyl)carbamate] | 7.05 | 0.0254 ± 0.00027 | 11 ± 1.12 |  |  | 
10 | CCCCCNC(=O)Oc1ccc2[nH]cc(CCN)c2c1 [4c, 3-(2-aminoethyl)-1H-indol-5-yl pentylcarbamate] | > 100 | 0.121 ± 0.00838 | > 100 |  |  | 
11 | O=C(Oc1ccc2[nH]cc(CCNCc3ccccc3)c2c1)N1CCC1 [3q, 3-(2-(benzylamino)ethyl)-1H-indol-5-yl azetidine-1-carboxylate] | 0.482 ± 0.00599 | 0.00258 ± 0.00013 | 57.8 ± 2.88 |  |  | 
12 | CON(C)C(=O)Oc1ccc2[nH]cc(CCNCc3ccccc3)c2c1 [3o, 3-(2-(benzylamino)ethyl)-1H-indol-5-yl methoxy(methyl)carbamate] | 2.61 | 0.0588 ± 0.00292 | 50.4 ± 1.07 |  |  | 
13 | CCCCNC(=O)Oc1ccc2[nH]cc(CCNCc3ccccc3)c2c1 [3b, 3-(2-(benzylamino)ethyl)-1H-indol-5-yl butylcarbamate] | 1.69 | 0.0237 ± 0.00118 | 18.5 ± 0.81 |  |  | 
14 | CCCCN(CCCC)C(=O)Oc1ccc2[nH]cc(CCNCc3ccccc3)c2c1 [3m, 3-(2-(benzylamino)ethyl)-1H-indol-5-yl dibutylcarbamate] | 19.8 | 0.0974 ± 0.00853 | 3.87 ± 0.35 |  |  | 
15 | O=C(Nc1ccccc1)Oc1ccc2[nH]cc(CCN(Cc3ccccc3)Cc3ccccc3)c2c1 [2i, 3-(2-(dibenzylamino)ethyl)-1H-indol-5-yl phenylcarbamate] |  |  |  | > 100 | 0.0558 ± 0.00314 | 41.8 ± 2.31
16 | O=C(Oc1ccc2[nH]cc(CCNCc3ccccc3)c2c1)N1CCCCCC1 [3t, 3-(2-(benzylamino)ethyl)-1H-indol-5-yl azepane-1-carboxylate] | > 100 | 0.0232 ± 0.00094 | 11.9 ± 0.39 |  |  | 
17 | O=C(Oc1ccc2[nH]cc(CCNCc3ccccc3)c2c1)N1CCOCC1 [3u, 3-(2-(benzylamino)ethyl)-1H-indol-5-yl morpholine-4-carboxylate] | > 100 | 0.112 ± 0.00737 | 51.3 ± 2.55 |  |  | 
18 | O=C(Oc1ccc2[nH]cc(CCN(Cc3ccccc3)Cc3ccccc3)c2c1)N1CCCCC1 [2s, 3-(2-(dibenzylamino)ethyl)-1H-indol-5-yl piperidine-1-carboxylate] |  |  |  | > 100 | 0.0334 ± 0.00521 | 42.7 ± 2.09
19 | CCN(CC)C(=O)Oc1ccc2[nH]cc(CCN(Cc3ccccc3)Cc3ccccc3)c2c1 [2k, 3-(2-(dibenzylamino)ethyl)-1H-indol-5-yl diethylcarbamate] |  |  |  | > 100 | 0.3209 ± 0.00206 | 54.68 ± 0.42
20 | CCCCCCNC(=O)Oc1ccc2[nH]cc(CCN)c2c1 [4d, 3-(2-aminoethyl)-1H-indol-5-yl hexylcarbamate] | > 100 | 0.0277 ± 0.00204 | 25.2 ± 1.37 |  |  | 
21 | O=C(Oc1ccc2[nH]cc(CCNCc3ccccc3)c2c1)N(c1ccccc1)c1ccccc1 [3n, 3-(2-(benzylamino)ethyl)-1H-indol-5-yl diphenylcarbamate] | > 100 | 0.156 ± 0.00358 | 0.54 ± 0.03 |  |  | 
22 | CCCCNC(=O)Oc1ccc2[nH]cc(CCN(Cc3ccccc3)Cc3ccccc3)c2c1 [2b, 3-(2-(dibenzylamino)ethyl)-1H-indol-5-yl butylcarbamate] |  |  |  | > 100 | 0.003 ± 0.00021 | 40.6 ± 1.12
23 | CCCNC(=O)Oc1ccc2[nH]cc(CCNCc3ccccc3)c2c1 [3a, 3-(2-(benzylamino)ethyl)-1H-indol-5-yl propylcarbamate] | 1.95 | 0.0182 ± 0.00068 | 31.3 ± 2.32 |  |  | 
24 | O=C(Oc1ccc2[nH]cc(CCN(Cc3ccccc3)Cc3ccccc3)c2c1)N(c1ccccc1)c1ccccc1 [2n, 3-(2-(dibenzylamino)ethyl)-1H-indol-5-yl diphenylcarbamate] |  |  |  | > 100 | 0.2623 ± 0.00248 | > 100
25 | CCCCCCCNC(=O)Oc1ccc2[nH]cc(CCNCc3ccccc3)c2c1 [3e, 3-(2-(benzylamino)ethyl)-1H-indol-5-yl heptylcarbamate] | 1.13 | 0.0336 ± 0.00164 | 6.49 ± 0.34 |  |  | 
26 | O=C(NC1CCCC1)Oc1ccc2[nH]cc(CCN(Cc3ccccc3)Cc3ccccc3)c2c1 [2g, 3-(2-(dibenzylamino)ethyl)-1H-indol-5-yl cyclopentylcarbamate] |  |  |  | > 100 | 0.0337 ± 0.00162 | 57.3 ± 4.3
27 | O=C(NC1CCCCC1)Oc1ccc2[nH]cc(CCNCc3ccccc3)c2c1 [3h, 3-(2-(benzylamino)ethyl)-1H-indol-5-yl cyclohexylcarbamate] | > 100 | 0.0435 ± 0.00335 | 11.6 ± 0.34 |  |  | 
28 | CCCNC(=O)Oc1ccc2[nH]cc(CCN(Cc3ccccc3)Cc3ccccc3)c2c1 [2a, 3-(2-(dibenzylamino)ethyl)-1H-indol-5-yl propylcarbamate] |  |  |  | > 100 | 0.0332 ± 0.00499 | 51.58 ± 0.05
29 | CCCN(CCC)C(=O)Oc1ccc2[nH]cc(CCNCc3ccccc3)c2c1 [3l, 3-(2-(benzylamino)ethyl)-1H-indol-5-yl dipropylcarbamate] | > 100 | 0.044 ± 0.00184 | 6.31 ± 0.39 |  |  | 
